Target: T1, human M5 receptors (hM5) (Homo sapiens, UniProt P08912)
T1 construct: expressed in transfected cells
T1 sequence (P08912 1-532): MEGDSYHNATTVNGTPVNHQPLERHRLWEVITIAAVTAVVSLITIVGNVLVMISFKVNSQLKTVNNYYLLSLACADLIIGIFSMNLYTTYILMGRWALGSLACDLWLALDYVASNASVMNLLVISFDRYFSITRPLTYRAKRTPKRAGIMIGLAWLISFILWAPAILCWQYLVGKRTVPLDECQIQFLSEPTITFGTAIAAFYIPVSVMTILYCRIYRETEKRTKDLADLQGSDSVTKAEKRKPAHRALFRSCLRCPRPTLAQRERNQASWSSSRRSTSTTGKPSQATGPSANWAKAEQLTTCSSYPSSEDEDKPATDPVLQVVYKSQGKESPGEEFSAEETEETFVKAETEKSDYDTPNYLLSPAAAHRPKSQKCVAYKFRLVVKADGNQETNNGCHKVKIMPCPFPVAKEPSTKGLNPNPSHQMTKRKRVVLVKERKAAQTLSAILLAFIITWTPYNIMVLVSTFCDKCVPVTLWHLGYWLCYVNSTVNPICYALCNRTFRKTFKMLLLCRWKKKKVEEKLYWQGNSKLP
Assay: Cell-based functional calcium mobilization assay of mAChR M5 activity (inhibition of EC80 acetylcholine response) in CHO cells
Details: CHO cells stably expressing hM5; for IC50: calcium flux (Fluo-4), EC80 acetylcholine addition; for EC80 MIN: minimum of EC80 acetylcholine response, normalized to maximum acetylcholine response
Experimental: All functional cell-based assays were performed essentially as previously described (Marlo et al., Mol.Pharm. 2009, 75(3), 577-588; Brady et al., J. Pharm. & Exp. Ther. 2008, 327, 941-953). Initial, single point (10 µM) competitive and non-competitive inhibitor characterization was performed in stable Chinese Hamster Ovary (CHO) cell lines constitutively expressing human M5 receptors. These were plated at 15,000 cells per 20 µL per well in Greiner 384-well black-walled, TC-treated, clear-bottomed plates (Fisher) in Ham’s F12 medium supplemented with 10% FBS and 20 mM HEPES. Cells were incubated overnight at 37° C. under 5% CO2. The following day, medium was exchanged with assay buffer (Hank’s Balanced Salt Solution supplemented with 20 mM HEPES and 2.5 mM Probenecid, pH 7.4) leaving 20 µL of assay buffer in each well. This was followed by the addition of 20 µL of 2.3 µM of Fluo-4 AM (Invitrogen) in assay buffer (final concentration 1.15 µM). The cells were then incubated 50 minutes at 37° C. under 5% CO2. The assay buffer plus dye was then exchanged with fresh assay buffer leaving a volume of 20 µL in each well. Test compounds were diluted into assay buffer to a 2X (20 µM) concentration in 0.2% dimethylsulfoxide (DMSO) in columns 3 - 22 with matching DMSO concentration in columns 1, 2, 23, and […]; compounds were added to the assay for a final concentration of 10 µM and a final DMSO concentration of 0.1%. Acetylcholine (Sigma-Aldrich) was prepared to provide 5X concentrations of EC20, EC80, and ECmax in the triple-addition assay, providing a signal window to view agonism, potentiation, and inhibition of the acetylcholine response as well as a means to normalize to the maximum acetylcholine response.
Either an FDSS (Hamamatsu) or Panoptic (WaveFront Biosciences) kinetic imaging plate reader was used for assay execution and measurement of calcium flux. After establishing baseline fluorescence, test compounds (20 µL) were added to the cells using the reader’s integrated pipettor and allowed to equilibrate for 140 seconds before addition of the EC20 concentration of acetylcholine (10 µL) along with vehicle in selected DMSO-only wells in the outer two columns. The EC80 concentration of acetylcholine (10 µL) was added 125 seconds after the EC20 addition along with ECmax concentration in the wells receiving vehicle in the second addition. The raw fluorescence data from each well was normalized to the corresponding initial fluorescence reading (static ratio). The maximum fluorescence value following each addition was determined and the minimum value within that same timeframe was subtracted for each well then normalized to the average of the ECmax maximum-minimum response, providing a %AChmax value for each addition for each well. The single point values represent mean values determined within the EC80 addition timeframe obtained from at least three independent determinations performed in triplicate or greater (error bars represent +/- SEM) unless otherwise specified.
Further characterization of competitive and non-competitive inhibitor compounds (compound potency and mAChR subtype-selectivity) was performed on the FDSS with calcium mobilization assays performed as previously described (Marlo et al., 2009; Brady et al., 2008) and in a format similar to that described above using the same reagents. CHO cells stably expressing hM1, hM2/Gqi5, hM3, hM4/Gqi5, hM5, rM1, rM2/Gqi5, rM3, rM4/Gqi5, or rMs were plated in the manner described above. A ten-point concentration range of test compound was serial diluted in assay buffer to 2X final concentration and acetylcholine was diluted in assay buffer to 5X of the EC20 and EC80 concentrations, determined empirically and 5X maximal (2 mM final concentration) stock concentrations. FDSS protocols were carried out as described above; the static ratio was calculated and the minimum response subtracted from the maximum response within the timeframe of each addition. […]

SMILES	IC50 [nM]	EC80 MIN [%]
CC1Cc2cc(S(=O)(=O)N3CC[C@@H](C(=O)Nc4ccc5scnc5c4)C3)ccc2O1 (mixture of isomers) [Compound 88, (3R)-N-(benzo[d]thiazol-5-yl)-1-((2-methyl-2,3-dihydrobenzofuran-5-yl)sulfonyll)pyrrolidine-3-carboxamide]	4960	3
CC1COc2ccc(S(=O)(=O)N3CC[C@@H](C(=O)Nc4ccc5scnc5c4)C3)cc21 (mixture of isomers) [Compound 132, (3R)-N-(benzo[d]thiazol-5-yl)-1-((3-methyl-2,3-dihydrobenzofuran-5-yl)sulfonyl)pyrrolidine-3-carboxainide]	42	2
CC1COc2ccc(S(=O)(=O)N3C[C@H](C(=O)Nc4ccc5scnc5c4)[C@@H](C)C3)cc21 (mixture of isomers) [Compound 133, (3R,4R)-N-(benzo[d]thiazol-5-yl)-4-methyl-1-((3-methyl-2,3-dihydrobenzofuran-5-yl)sulfonyl)pyrrolidine-3-carboxamide]	156	3
Cc1cc2c(cc1S(=O)(=O)N1CC[C@@H](C(=O)Nc3ccc4scnc4c3)C1)C(C)CO2 (mixture of isomers) [Compound 146, (3R)-N-(benzo[d]thiazol-5-yl)-1-((3,6-dimethyl-2,3-dihydrobenzofuran-5-yl)sulfonyl)pyrrolidinc-3-carboxamide]	74	2
O=C(Nc1ccc2scnc2c1)C1CCN(S(=O)(=O)c2ccc3c(c2)CCO3)C1 (racemic) [Compound 15, (rac)-N-(benzo[d]thiazol-5-yl)-1-((2,3-dihydrobcnzofuran-5-yl)sulfonyl)pyrrolidine-3-carboxamide]	47	2
O=C(Nc1ccc2scnc2c1)C12CC1CN(S(=O)(=O)c1ccc3c(c1)CCO3)C2 (racemic) [Compound 23, (rac)-N-(benzo[d]thiazol-5-yl)-3-((2,3-dihydrobenzofuran-5-yl)sulfonyl)-3-azabicyclo[3.1.0]hexane-1-carboxamide]	248	2
O=C(Nc1ccc2scnc2c1)C1CCN(S(=O)(=O)c2cccnc2)C1 (racemic) [Compound 38, (rac)-N-(benzo[d]thiazol-5-yl)-1-(pyridin-3-ylsulfonyl)pyrrolidine-3-carboxamide]	> 10000	29
O=C(Nc1ccc2scnc2c1)C12CC1CN(S(=O)(=O)c1cccnc1)C2 (racemic) [Compound 40, (rac)-N-(benzo[d]thiazol-5-yl)-3-(pyridin-3-ylsulfonyl)-3-azabicyclo[3.1.0]hexane-1-carboxamide]	> 10000	53
O=C(Nc1ccc2scnc2c1)C12CC1CN(S(=O)(=O)c1cc3c(cc1F)OCC3)C2 (racemic) [Compound 43, (rac)-N-(benzo[d]thiazol-5-yl)-3-((6-fluoro-2,3-dihydrobenzofuran-5-yl)sulfonyl)-3-azabicyclo[3.1.0]hexane-1-carboxamide]	202	3
O=C(Nc1ccc2scnc2c1)[C@H]1CCN(S(=O)(=O)c2ccc3c(c2)CCO3)C[C@H]1F (racemic) [Compound 69, cis-(rac)-N-(benzo[d]thiazol-5-yl)-1-((2,3-dihydrobenzofuran-5-yl)sulfonyl)-3-fluoropiperidine-4-carboxamide]	2280	2
O=C(Nc1ccc2scnc2c1)[C@H]1CCN(S(=O)(=O)c2ccc3ncsc3c2)C[C@H]1F (racemic) [Compound 70, cis-(rac)-N-(benzo[d]|thiazol-5-yl-1)-1-(benzo[d]thiazol-6-ylsulfonyl)-3-fluoropiperidine-4-carboxamide]	> 10000	63
O=C(Nc1ccc2scnc2c1)[C@H]1CCN(S(=O)(=O)c2ccc(Cl)nc2)C[C@H]1F (racemic) [Compound 71, cis-(rac)-N-(benzo[d]thiazol-5-yl)-1-((6-chloropyridin-3-yl)sulfonyl)-3-fluoropiperidine-4-carboxamide]	> 10000	20
O=C(Nc1ccc2scnc2c1)[C@H]1CCN(S(=O)(=O)c2cccnc2)C[C@H]1F (racemic) [Compound 72, cis-(rac)-N-(benzo[d]thiazol-5-yl)-3-fluoro-1-(pyridin-3-ylsulfonyl)piperidine-4-carboxamide]	> 10000	13
Cc1nn(C)cc1S(=O)(=O)N1CC[C@H](C(=O)Nc2ccc3scnc3c2)[C@H](F)C1 (racemic) [Compound 73, cis-(rac)-N-(benzo[d]thiazol-5-yl)-1-((1,3-dimethyl-1H-pyrazol-4-yl)sulfonyl)-3-fluoropiperidine-4-carboxamide]	> 10000	45
O=C(Nc1ccc2scnc2c1)[C@H]1CCN(S(=O)(=O)c2cccc3nsnc23)C[C@H]1F (racemic) [Compound 75, cis-(rac)-1-(benzo[c][1,2,5]thiadiazol-4-ylsulfonyl)-N-(benzo[d]thiazol-5-yl)-3-fluoropiperidine-4-carboxamide]	4260	18
O=C(Nc1ccc2scnc2c1)[C@H]1CCN(S(=O)(=O)c2ccc3ncsc3c2)C[C@@H]1F (racemic) [Compound 77, trans-(rac)-N-(benzo[d]thiazol-5-yl)-1-(benzo[d]thiazol-6-ylsulfony1)-3-fluoropiperidine-4-carboxamide]	209	2
O=C(Nc1ccc2scnc2c1)[C@H]1CCN(S(=O)(=O)c2ccc(Cl)nc2)C[C@@H]1F (racemic) [Compound 79, trans-(rac)-N-(benzo[d]thiazol-5-yl)-1-((6-chloropyridin-3-yl)sulfonyl)-3-fluoropiperidine-4-carboxamide]	139	2
Cc1nn(C)cc1S(=O)(=O)N1CC[C@H](C(=O)Nc2ccc3scnc3c2)[C@@H](F)C1 (racemic) [Compound 80, trans-(rac)-N-(benzo[d]thiazol-5-yl)-1-((1,3-dimethyl-1H-pyrazol-4-yl)sulfonyl1)-3-fluoropiperidine-4-carboxamide]	312	3
O=C(Nc1ccc2scnc2c1)[C@H]1CCN(S(=O)(=O)c2cccc3nsnc23)C[C@@H]1F (racemic) [Compound 81, trans-(rac)-1-(benzo[c][1,2,5]thiadiazol-4-ylsulfonyl)-N-(benzo[d]thiazol-5-yl)-3-fluoropiperidine-4-carboxamide]	500	5
O=C(Nc1ccc2scnc2c1)[C@H]1CCN(S(=O)(=O)c2cccnc2)C[C@@H]1F (racemic) [Compound 82, trans-(rac)-N-(benzo[d]thiazol-5-yl)-3-fluoro-1-(pyridin-3-ylsulfonyl)piperidine-4-carboxamide]	95	2

— patent US20230303552A1, “ARYLSULFONYL DERIVATIVES AND THEIR USE AS MUSCARINIC ACETYLCHOLINE RECEPTOR M5 INHIBITORS” (Vanderbilt University, priority 2020, published 2023)
